Experiment: xn = mol fraction of the nth substance listed

CCCC[n+]1ccn(C)c1.[Cl][Al-]([Cl])([Cl])[Cl] + Cc1ccccc1
101 kPa, x2 = 0.37
Conditions	viscosity [mPa·s]
293.15 K	18.2
298.15 K	16.6
303.15 K	14.6
308.15 K	13.1
313.15 K	11.6
318.15 K	10.5
323.15 K	9.6

CCCBr + Cc1cc(C)cc(C)c1
308.15 K, 101 kPa
Conditions	viscosity [mPa·s]
x2 = 0.0819	0.4452
x2 = 0.1828	0.4586
x2 = 0.298	0.4744
x2 = 0.4146	0.4872
x2 = 0.5062	0.4995
x2 = 0.5971	0.5145
x2 = 0.7035	0.5257
x2 = 0.8027	0.541
x2 = 0.8945	0.5538

CCNCC + CCC(C)=O
298.15 K, 101 kPa
Conditions	viscosity [mPa·s]
x2 = 0.1013	0.273
x2 = 0.2023	0.279
x2 = 0.303	0.283
x2 = 0.4034	0.287
x2 = 0.5035	0.293
x2 = 0.6034	0.3
x2 = 0.703	0.313
x2 = 0.8023	0.331
x2 = 0.9013	0.353

Nc1ccccc1 + CCCCO
Conditions	viscosity [mPa·s]
298.15 K, 101 kPa, x1 = 0.09983	2.368
298.15 K, 101 kPa, x1 = 0.1935	2.278
298.15 K, 101 kPa, x1 = 0.3051	2.249
298.15 K, 101 kPa, x1 = 0.4055	2.287
298.15 K, 101 kPa, x1 = 0.4837	2.343
298.15 K, 101 kPa, x1 = 0.6005	2.474
298.15 K, 101 kPa, x1 = 0.6946	2.637
298.15 K, 101 kPa, x1 = 0.8028	2.899
298.15 K, 101 kPa, x1 = 0.8996	3.231
303 K, 101.33 kPa, x1 = 0.1	2.031
303 K, 101.33 kPa, x1 = 0.2	1.975
303 K, 101.33 kPa, x1 = 0.3	1.951
303 K, 101.33 kPa, x1 = 0.4	1.938
303 K, 101.33 kPa, x1 = 0.5	1.962
303 K, 101.33 kPa, x1 = 0.6	2.013
303 K, 101.33 kPa, x1 = 0.7	2.186
303 K, 101.33 kPa, x1 = 0.8	2.342
303 K, 101.33 kPa, x1 = 0.9	2.751
303.15 K, 100 kPa, x1 = 0.1195	2.083
303.15 K, 100 kPa, x1 = 0.2339	1.951
303.15 K, 100 kPa, x1 = 0.3649	1.857
303.15 K, 100 kPa, x1 = 0.4693	1.843
303.15 K, 100 kPa, x1 = 0.5498	1.878
303.15 K, 100 kPa, x1 = 0.6658	1.994
303.15 K, 100 kPa, x1 = 0.7945	2.261
303.15 K, 100 kPa, x1 = 0.9166	2.647
303.15 K, 101 kPa, x1 = 0.09983	2.049
303.15 K, 101 kPa, x1 = 0.1935	1.965
303.15 K, 101 kPa, x1 = 0.3051	1.941
303.15 K, 101 kPa, x1 = 0.4055	1.965
303.15 K, 101 kPa, x1 = 0.4837	2.01
303.15 K, 101 kPa, x1 = 0.6005	2.13
303.15 K, 101 kPa, x1 = 0.6946	2.248
303.15 K, 101 kPa, x1 = 0.8028	2.468
303.15 K, 101 kPa, x1 = 0.8996	2.745
308.15 K, 101 kPa, x1 = 0.09983	1.8
308.15 K, 101 kPa, x1 = 0.1935	1.734
308.15 K, 101 kPa, x1 = 0.3051	1.703
308.15 K, 101 kPa, x1 = 0.4055	1.722
308.15 K, 101 kPa, x1 = 0.4837	1.77
308.15 K, 101 kPa, x1 = 0.6005	1.857
308.15 K, 101 kPa, x1 = 0.6946	1.971
308.15 K, 101 kPa, x1 = 0.8028	2.144
308.15 K, 101 kPa, x1 = 0.8996	2.375
313.15 K, 100 kPa, x1 = 0.1195	1.605
313.15 K, 100 kPa, x1 = 0.2339	1.484
313.15 K, 100 kPa, x1 = 0.3649	1.39
313.15 K, 100 kPa, x1 = 0.4693	1.364
313.15 K, 100 kPa, x1 = 0.5498	1.393
313.15 K, 100 kPa, x1 = 0.6658	1.492
313.15 K, 100 kPa, x1 = 0.7945	1.709
313.15 K, 100 kPa, x1 = 0.9166	2.027
313.15 K, 101 kPa, x1 = 0.09983	1.568
313.15 K, 101 kPa, x1 = 0.1935	1.5
313.15 K, 101 kPa, x1 = 0.3051	1.44
313.15 K, 101 kPa, x1 = 0.4055	1.468
313.15 K, 101 kPa, x1 = 0.4837	1.529
313.15 K, 101 kPa, x1 = 0.6005	1.613
313.15 K, 101 kPa, x1 = 0.6946	1.709
313.15 K, 101 kPa, x1 = 0.8028	1.861
313.15 K, 101 kPa, x1 = 0.8996	2.048

C[NH+](CCO)CCO.O=C[O-] + CCO
viscosity [mPa·s], 101 kPa
Conditions	293.15 K	303.15 K	313.15 K	323.15 K
x1 = 0.0643	32.41	17.44	8.445	5.799
x1 = 0.1074	52.86	25.09	13.49	9.254
x1 = 0.2133	106.7	51.03	27.25	18.63
x1 = 0.3117	159.3	78.2	41.19	28.12
x1 = 0.417	218.9	107.6	57.4	39.18
x1 = 0.5197	281.6	137.2	74.93	51.06
x1 = 0.6178	348.2	168.6	93.84	63.73
x1 = 0.7224	434.6	211.7	118.3	79.69
x1 = 0.8275	534.4	263.6	145.7	97.16
x1 = 0.9161	630.3	312.3	170	112.2
x1 = 0.95	665	328.9	178.8	117.6

COCCOCCOCCOC + CCCOC(C)=O
viscosity [mPa·s], 101.3 kPa
Conditions	298.15 K	308.15 K	318.15 K
x1 = 0.005	0.558	0.492	0.442
x1 = 0.0351	0.589	0.517	0.465
x1 = 0.0513	0.607	0.532	0.476
x1 = 0.0859	0.643	0.562	0.503
x1 = 0.1416	0.709	0.613	0.544
x1 = 0.1846	0.757	0.652	0.577
x1 = 0.2654	0.857	0.734	0.647
x1 = 0.3185	0.922	0.785	0.683
x1 = 0.3767	1.009	0.848	0.733
x1 = 0.426	1.078	0.902	0.784
x1 = 0.5278	1.224	1.019	0.862
x1 = 0.5868	1.313	1.086	0.921
x1 = 0.627	1.388	1.141	–
x1 = 0.6327	–	–	0.964
x1 = 0.69	1.486	1.22	1.025
x1 = 0.7402	1.567	1.282	1.077
x1 = 0.8031	1.67	1.365	1.137
x1 = 0.8451	1.744	1.427	1.177
x1 = 0.8711	1.784	1.472	1.207
x1 = 0.9467	1.9	1.542	1.276
x1 = 0.9582	1.91	1.552	1.285
x1 = 0.979	1.939	1.513	1.302

From the CheMixHub viscosity set
